Reference: US20260200946A1, “KRAS(G12V) INHIBITORS” (Ranok Therapeutics (Hangzhou) Co. Ltd., priority 2022, published 2026)

Tests used:
NCIH727 cells = experiment: Cancer cell line proliferation (CellTiter-Glo), NCI-H727; type: cell-based; conditions: Homo sapiens, 72 h, NCIH727 lung carcinoid, heterozygous G12V
Summary of the method: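 NCI-H727 cells (1,000/well) were grown 72 h at 37 °C/5% CO2, then exposed to compound at various concentrations (0.5% DMSO final) for a further 72 h. Viability was read by CellTiter-Glo luminescence, and IC50 values were calculated from the dose-response.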

SW620 cells = experiment: Cancer cell line proliferation (CellTiter-Glo), SW620; type: cell-based; conditions: Homo sapiens, SW-620, SW620 colorectal adenocarcinoma, homozygous G12V, 72 hr
Description: Cell lines were cultured essentially according to ATCC recommendations. SW620 and NCIH727 cells were plated in 384-well tissue culture plates at 1,000 cells/well and incubated at 37° C./5% CO2 for 72 hr in 40 μl of media. […] Each cell line was then treated with test compounds at various concentrations with a final concentration of 0.5% DMSO/well, and then incubated at 37° C./5% CO2 for 72 hr. 40 μl of CellTiter-Glo® Reagent (Promega Corporation, Madison, WI) was added to each well and processed according manufacturer's protocol. Results were analyzed and IC50 values were calculated in GraphPad 8.0 software.

KRAS(G12V)/SOS1 = target: T1, KRAS(G12V)/SOS1 (Homo sapiens, UniProt P01116, G12V); experiment: KRAS(G12V)/SOS1 homogeneous time-resolved fluorescence (HTRF) assay; type: binding; conditions: absence of GTP; 4° C., 3 hours; read-out: HTRF of KRASG12V-SOS1
T1 construct: purchased Cisbio 63ADK000CB18PEH
Description: Binding of test compounds to KRAS(G12V) target protein, which in turn blocks KRAS(G12V) interaction with the SOS1 protein, was measured in the absences of GTP by homogeneous time-resolved fluorescence using the KRAS-G12V/SOS1 Binding Assay Kit (Cisbio, 63ADK000CB18PEH), following the manufacturer's instructions, except as noted. 3-fold serial dilutions of each test compound were prepared ranging from 20 µM to 1.02 nM. The test compound was mixed and incubated with reaction components, incubated in a sealed plate at 4° C. for 3 hours and fluorescence was measured using a PerkinElmer Envision plate reader. The KRAS(G12V)-SOS1 IC50 values (the concentration of 50% of the maximal inhibition) were calculated using GraphPad Prism 8.0 software.

T1 sequence (P01116 1-188 isoform P01116-2 G12V): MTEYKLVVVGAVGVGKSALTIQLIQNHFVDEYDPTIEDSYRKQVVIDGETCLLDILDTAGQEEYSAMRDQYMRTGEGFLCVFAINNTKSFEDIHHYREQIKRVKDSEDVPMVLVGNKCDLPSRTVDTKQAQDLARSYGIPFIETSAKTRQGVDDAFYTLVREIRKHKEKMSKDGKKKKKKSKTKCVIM

SMILES | EC50 (NCIH727 cells) [µM] | EC50 (SW620 cells) [µM] | IC50 (KRAS(G12V)/SOS1) [µM]
C#Cc1c(F)ccc2cc(O)cc(-c3nc(OC)c4c(N5CC6CCC(C5)N6C(=O)NC#N)nc(OCC5(CN6CCC(F)CC6)CC5)nc4c3F)c12 [Example 23] | > 1 | > 1 | 0.1 to 1
C#Cc1c(F)ccc2cc(O)cc(-c3ncc4c(N5CC6CCC(C5)N6C(=O)[C@H]5CCN(C(=O)OC)C5)nc(OCC5(CN6CCC(F)CC6)CC5)nc4c3F)c12 [Example 36] | > 1 | > 1 | 0.1 to 1
C#Cc1c(F)ccc2cc(O)cc(-c3ncc4c(N5CC6CCC(C5)N6C(=O)c5c[nH]cn5)nc(OCC5(CN6CCC(F)CC6)CC5)nc4c3F)c12 [Example 30] | > 1 | > 1 | 0.1 to 1
C#Cc1c(F)ccc2cc(O)cc(-c3nc(OC)c4c(N5CC6CCC(C5)N6C(=O)NC5(C#N)CC5)nc(OCC5(CN6CCC(F)CC6)CC5)nc4c3F)c12 [Example 34] | 0.1 to 1 | 0.1 to 1 | 0.1 to 1
C#Cc1c(F)ccc2cc(O)cc(-c3ncc4c(N5CC6CCC(C5)N6C(=O)NC5(C(F)(F)F)CC5)nc(OCC5(CN6CCC(F)CC6)CC5)nc4c3F)c12 [Example 51] | > 1 | > 1 | < 0.1
C#Cc1c(F)ccc2cc(O)cc(-c3ncc4c(N5CC6CCC(C5)N6C(=O)NC5CCNC5)nc(OCC5(CN6CCC(F)CC6)CC5)nc4c3F)c12 (stereo not drawn) [Example 49] | > 1 | > 1 | < 0.1
C#Cc1c(F)ccc2cc(O)cc(-c3ncc4c(N5CC6CCC(C5)N6C(=O)C5(C(F)(F)F)CC5)nc(OCC5(CN6CCC(F)CC6)CC5)nc4c3F)c12 [Example 22] | > 1 | > 1 | 0.1 to 1
C#Cc1c(F)ccc2cc(O)cc(-c3ncc4c(N5CC6CCC(C5)N6C(=O)CCC#N)nc(OCC5(CN6CCC(F)CC6)CC5)nc4c3F)c12 [Example 3] | > 1 | 0.1 to 1 | < 0.1
C#Cc1c(F)ccc2cc(O)cc(-c3ncc4c(N5CC6CCC(C5)N6S(=O)(=O)CC(C)C)nc(OCC5(CN6CCC(F)CC6)CC5)nc4c3F)c12 [Example 14] | > 1 | 0.1 to 1 | 0.1 to 1
C#Cc1c(F)ccc2cc(O)cc(-c3ncc4c(N5CC6CCC(C5)N6C(=O)CC(F)(F)F)nc(OCC5(CN6CCC(F)CC6)CC5)nc4c3F)c12 [Example 39] | > 1 | > 1 | 0.1 to 1
C#Cc1c(F)ccc2cc(O)cc(-c3ncc4c(N5CC6CCC(C5)N6C(C)=O)nc(OCC5(CN6CCC(F)CC6)CC5)nc4c3F)c12 [Example 41] | > 1 | > 1 | 0.1 to 1
C#Cc1c(F)ccc2cc(O)cc(-c3ncc4c(N5CC6CCC(C5)N6C(=O)N5CC(OC)C5)nc(OCC5(CN6CCC(F)CC6)CC5)nc4c3F)c12 [Example 24] | > 1 | > 1 | 0.1 to 1
